Data: patent US20250333733A1, “NOVEL TARGETS AGAINST OVARIAN CANCER” (UNIVERSITY OF PUERTO RICO, priority 2022, published 2025)

Assays:
OVCAR3 = settings: 72-hr incubation, Alamar Blue, read-out: IC50 cisplatin; cited from earlier work
OVCAR3CIS cells [1] = assay: Cell viability, Alamar blue, siRNA alone or with cisplatin; format: cell-based; settings: CIS 2.5 μM, NC-siRNA-transfected OVCAR3CIS cells
Procedure: OVCAR3CIS cells (3.0×10^4 cells/mL) or SKOV3ip1CIS (3.0×10^4 cells/mL) were seeded into 12-well plates. […] The next day, 400 cells (OVCAR3CIS) or 1,000 cells (SKOV3ip1CIS) were seeded into 6-well plates and incubated for seven days, fixed and stained with 0.5% crystal violet in methanol. Colonies of at least 50 cells were counted using a light microscope (CKX41: Olympus, Center Valley, PA, USA) with a total magnification of 40x. For cell viability assays, OVCAR3 and OVCAR3CIS (3.0×10^4 cells/mL) or SKOV3ip1and SKOV3ip1CIS (3.5×10^4 cells/mL) were seeded into 96-well plates, and 24 hours later, siRNA transfection was performed as described above. The next day, the transfection mix was replaced with cisplatin (CIS) (2.5 uM final concentration dissolved in regular cell culture media) and after forty-eight hours, the medium was removed, and Alamar blue dye (Invitrogen, Thermo Fisher Scientific, Eugene, OR, USA) was added following the manufacturer's instructions. Optical density (OD) was measured, and percentages of cell viability were calculated after blank OD subtraction. Untreated cells were assessed as 100% cell viability.

OVCAR3CIS = settings: 72-hr incubation, Alamar Blue, read-out: IC50 cisplatin; cited from earlier work
OV90 = settings: 72-hr incubation, Alamar Blue, read-out: IC50 cisplatin; cited from earlier work
SKOV3IP1CIS [2] = settings: 72-hr incubation, Alamar Blue, read-out: IC50 cisplatin; cited from earlier work
SKOV3IP1 = settings: 72-hr incubation, Alamar Blue, read-out: IC50 cisplatin; cited from earlier work
OV90CIS = settings: 72-hr incubation, Alamar Blue, read-out: IC50 cisplatin; cited from earlier work
A2780CIS = settings: 72-hr incubation, Alamar Blue, read-out: IC50 cisplatin; cited from earlier work
A2780CP20 = settings: 72-hr incubation, Alamar Blue, read-out: IC50 cisplatin; cited from earlier work
CASC10 [3] = assay: RT-qPCR of CASC10 expression after siRNA transfection in OVCAR3CIS cells; format: cell-based; settings: vs NC-siRNA
Procedure: (§1) SiRNA ON-TARGET plus SMARTpool (a mixture of 4 siRNA as a single tube) and a negative control siRNA (NC-siRNA) (Sigma-Aldrich) were used for transfection studies. CASC10, was targeted by using two siRNAs targeting different regions of the CASC10 RNA (e.g., CASC10-siRNA (1) and CASC10-siRNA (2)). OVCAR3CIS or SKOV3ip1CIS cells were seeded into 12-well plates at 3.0×10^4 cells/mL. The next day, siRNAs were mixed with HiPerfect transfection reagent (Qiagen, Valencia, CA) at a 1:2 ratio (SIRNA: HiPerfect) in serum and antibiotic-free Opti-MEM medium (Gibco) and added to the cells. After twenty-four hours the media was replaced by regular culture media, and cells were cultured and used for further experiments. To assess siRNA transfection efficiency, cells were collected 24 hours after siRNA transfection.
(§2) A custom-made 384-well plate containing pre-designed forward and reverse primers was purchased from Bio-Rad (CA, USA). Total RNA was isolated from OVCAR3 and OVCAR3CIS cells using the GenElute Mammalian Total RNA Mini Kit (Millipore-Sigma, MO, USA) following the manufacturer's instructions. […] Fold-changes and cycle threshold (Ct) values were calculated by the instrument's internal software relative to OVCAR3 cells and normalized to B-actin along with controls for gDNA, PCR reaction, RT reaction, and RNA quality.

OVCAR3CIS cells [4] = assay: Matrigel transwell invasion assay; format: cell-based; settings: vs NC-siRNA
Procedure: (§3) Cell invasion was measured using the Matrigel transwell method. OVCAR3CIS (3.0×10^4 cells/mL) or SKOVip1CIS (3.5×10^4 cells/mL) were seeded into 10 cm Petri dishes and transfected with siRNAs. Twenty-four hours later, serum-free matrigel (BD Biosciences CA, USA) was added onto the upper chambers of 24-well plates and incubated at 37° C. for polymerization. Transfected cells were collected and resuspended in serum-free and re-seeded onto the Matrigel-coated chambers. Medium containing 10% FBS was added to the lower area of the wells, and the plates incubated for 48 hours at 37° C. The medium was removed, and cells that invaded through the matrigel fixed and stained using ProtocolHema 3 Stain Set (Fisher Scientific MI, USA). Invaded cells were microscopically counted using a digital camera to capture images at a 20× resolution. The percentage of cell invasion was calculated using the NC-SIRNA condition as 100% cell invasion.

SKOV3IP1CIS [5] = assay: Matrigel transwell invasion assay; format: cell-based, human
Procedure: as §3

CASC10 [6] = assay: RT-qPCR of CASC10 expression after siRNA transfection in SKOV3ip1 cells; format: cell-based, human; settings: SKOV3ip1 cells as printed
Procedure: as §1, §2

SKOV3ip1CIS cells = assay: Colony formation assay after siRNA transfection; format: cell-based, human; settings: SKOV3ip1CIS (FIG. 8B)
Procedure: as §1
(§4) OVCAR3CIS cells (3.0×10^4 cells/mL) or SKOV3ip1CIS (3.0×10^4 cells/mL) were seeded into 12-well plates. Twenty-four hours later, cells were transfected with 100 nM (final concentration) of each siRNA. […] Colonies of at least 50 cells were counted using a light microscope (CKX41: Olympus, Center Valley, PA, USA) with a total magnification of 40x. […] Optical density (OD) was measured, and percentages of cell viability were calculated after blank OD subtraction. Untreated cells were assessed as 100% cell viability.

OVCAR3CIS cells [7] = assay: Colony formation assay after siRNA transfection; format: cell-based; settings: single siRNA, vs NC-siRNA
Procedure: as §1
as §4, with “viability. […]” for “viability.”

**Q.** What does the source list for `N.N.[Cl][Pt][Cl]` [cisplatin]?
**A.** IC50 (OVCAR3): 2.8 µM; cell viability (OVCAR3CIS cells [1]): reduced the cell viability; IC50 (OVCAR3CIS): 7.5 µM; IC50 (OV90): 3.5 µM; IC50 (SKOV3IP1CIS [2]): 7.3 µM; IC50 (SKOV3IP1): 3.9 µM; IC50 (OV90CIS): 7.8 µM; IC50 (A2780CIS): 4.3 µM; IC50 (A2780CP20): 20 to 30 µM

**Q.** Which “decrease of CASC10 expression” value (CASC10 [3]) does the source give for “CASC10-siRNA (1): siRNA targeting CASC10 RNA, SEQ ID NO 1 and 2: 5′ GCUAUCUGCUUGAUCCCUU(dT)(dT) 3′ / 5′ AAGGGAUCAAGCAGAUAGO(dT)(dT) 3′ (chain 1 GCUAUCUGCUUGAUCCCUUNN; chain 2 AAGGGAUCAAGCAGAUAGCNN; 3' dTdT overhangs, chemistry not fully specified)” here?
**A.** 47%

**Q.** What about the reduction of invasiveness (OVCAR3CIS cells [4]) of the same molecule?
**A.** 42%

**Q.** And the “reduction of invasion ability” value (SKOV3IP1CIS [5])?
**A.** 36%

**Q.** What about the “decrease of CASC10 relative expression” value (CASC10 [6]) of the same molecule?
**A.** 70%

**Q.** And the “reduction in the number of colonies” value (SKOV3ip1CIS cells)?
**A.** 81%

**Q.** What about the “reduction in the number of colonies” value (OVCAR3CIS cells [7]) of the same molecule?
**A.** 42%
